Source: USRE48898E1, “Prodrugs of 2,4-pyrimidinediamine compounds and their uses” (Rigel Pharmaceuticals, Inc., priority 2006, dated 2022)
“Also recorded” adds a separate entry of the source. Counter-ions that a name gives are not always drawn. Like-named read-outs stand apart in the source and are kept apart here. Each block holds one compound with its values, some of them ahead of it.

Tests used:
[1] = system: collagen antibody-induced arthritis (CAIA); assay: Collagen antibody-induced arthritis (CAIA) model; format: in vivo, Balb/c mice
Excerpt: This passive model differs from the traditional rodent collagen-induced arthritis (CIA) in that disease symptoms appear quickly (developing within 24-48 hrs after an IV-injection of antibodies), arthritis is inducible in both CIA-susceptible and CIA-resistant mouse strains, and it allows evaluation of inflammation that is independent of antibody production. CAIA was induced in Balb/c mice by intravenous injection of Arthrogen-CIA® Monoclonal Antibody Blend (Chemicon International, Inc., Temecula, Calif.) via the tail vein, followed 2 days later by an intraperitoneal injection of LPS. […] The severity of the arthritis in hind-paws was scored daily (scale of 0-4 per paw, sum of scores for both hind paws).

[2] = system: collagen-induced arthritis; assay: Collagen-induced arthritis (CIA); format: in vivo, Syngeneic LOU rats
Excerpt: One of the experimental models for IC-mediated tissue injury is the CIA in rodents (Kleinau et al., 2000, J. Exp. Med. 191:1611-1616). Injection of type II collagen (CII) into rodents produces an immune reaction that characteristically involves inflammatory destruction of cartilage and bone of the distal joints with concomitant swelling of surrounding tissues. CIA in rats is commonly used to evaluate compounds that might be of potential use as drugs for treatment of rheumatoid arthritis and other chronic inflammatory conditions and is induced in susceptible strains of either mice or rats by injection of CII in incomplete Freund's adjuvant (IFA). Administration of this emulsion gives rise to polyarthritis, characterized by synovial hyperplasia, infiltration of mononuclear cells, pannus formation, and destruction of cartilage and bone. […] Syngeneic LOU rats were immunized on Day 0 with native chicken CII/IFA. Oral treatment began at the onset of arthritis symptoms (Day 10). […] Hind limbs were scored daily for clinical arthritis severity using a standardized method based on the degree of joint inflammation. High resolution digital radiographs of hind limbs were obtained at the conclusion of the study (Day 28). These limbs were also analyzed for histopathologic changes. IgG antibodies to native CII were measured in quadruplicate by ELISA. […] Brahn. 2004). Blinded composite histopathologic studies confirmed the regression of pannus and erosions: […] Antibodies to native CII were not decreased in Compound 1-treated rats.

[3] = system: Cord-Blood Derived Primary Human Mast Cells (CHMC); assay: FcϵRI-dependent activation of CHMC, activity of tryptase released upon degranulation; format: cell-based; details: Mast cell
[4] = Water solubility; format: physicochemical
[5] = system: Reverse Passive Arthus (RPA) reaction; assay: Reverse Passive Arthus (RPA) reaction; format: in vivo, rat
Excerpt: IC-mediated acute inflammatory tissue injury is implicated in a variety of human autoimmune diseases, including vasculitis, serum sickness, systemic lupus erythematosus, RA, and glomerulonephritis. The classical experimental model for IC-mediated tissue injury is the Reverse Passive Arthus (RPA) reaction. Intravenous injection of antigen (ovalbumin, OVA) following intradermal injection of antibodies specific to OVA (rabbit anti-OVA IgG) results in perivascular deposition of IC and a rapid inflammatory response characterized by edema, neutrophil infiltration, and hemorrhage at the injection sites (Szalai, et al., 2000, J. Immunol. 164(1):463-468).

[6] = in vivo
Method: (§1) GLP toxicology studies included negative mutagenicity and clastogenicity studies (Ames, chromosomal aberration, and mouse micronucleus). […] The No Observed Adverse Effect Level (NOAEL) is 10-30 mg/kg/day for rats and 100 mg/kg/day for monkeys.

[7] = system: CHMCs; assay: Ionomycin-induced degranulation of CHMCs; format: cell-based, Human
[8] = system: FcϵRI-dependent production and release of cytokines; assay: FcϵRI-dependent production and release of cytokines; format: cell-based; details: read-out: EC50, all cytokines tested
[9] = system: FcϵRI-dependent production and release of LTC4; assay: FcϵRI-dependent production and release of LTC4; format: cell-based
[10] = GLP mutagenicity and clastogenicity studies (Ames, chromosomal aberration, mouse micronucleus)
Method: as §1

[11] = Stability in rat plasma; format: in vitro ADME
Excerpt: The presence of Phosphatase activity in rat plasma was confirmed using p-nitrophenyl phosphate—a known substrate for phosphatase.

[12] = Pharmacokinetics, IV and oral dosing; format: in vivo, Sprague-Dawley rats
Method: Prodrug Compound 4 was tested for oral bioavailability. For the study, the prodrug was dissolved in various vehicles (e.g. PEG 400 solution and CMC suspension) for intravenous and oral dosing in the rats. […] Following administration of the prodrug and/or drug, plasma samples were obtained and extracted. The plasma concentrations of the prodrug and/or drug were determined by high performance liquid chromatography/tandem mass spectrometry (LC/MS/MS) methods. Pharmacokinetic analyses were performed based on the plasma concentration data. The pharmacokinetic parameters of interest include Clearance (CL), Volume of distribution at steady-state (Vss), terminal half-life (t ½), and oral bioavailability (% F).
Referring to FIG. 4, PK profiles are shown for IV and PO administration in Sprague-Dawley rats. For IV administration, Compound 4 was dissolved in PEG-400 and administered at a dose of 1 mg/kg.
FIG. 5 summarizes the PK parameters for the study described in FIG. 4.
FIG. 11 illustrates the absorption of prodrug Compound 4 from different vehicles. […] Prodrug Compound 4 is absorbed equally well in solution formulations (PEG-400 and carboxymethylcellulose (CMC)) and as a powder in hard gelatin capsules.

[13] = Stability under acidic and neutral conditions; format: physicochemical; details: acidic and neutral conditions at 37° C.
[14] = Conversion of prodrug to drug in microsome preparations; format: in vitro ADME, rat
Excerpt: Although phosphate-containing prodrugs suitable for oral administration are of interest, skilled artisans will appreciate that prodrugs including phosphate-containing progroups R^p can be administered via other routes of administration, as phosphatases are distributed throughout the body. […] Thus, the only requirement is that the particular phosphate-containing progroup R^p selected should be removable under the conditions of intended use.

[15] = Moisture sorption analysis; format: physicochemical
Method: The sample for moisture analysis was allowed to dry at 25° C. for up to 4 hours under a stream of dry nitrogen. The relative humidity was then increased stepwise from 10 to 90% relative humidity (adsorption scan) allowing the sample to equilibrate for a maximum of four hours before weighing and moving on to the next step. The desorption scan was measured from 85 to 0% relative humidity with the same equilibration time. The sample was then dried at 80° C. for 2 hours or until no weight loss was observed under a stream of dry nitrogen.

[16] = aqueous buffer, aqueous buffer under physiological conditions, read-out: water solubility
[17] = water, water solubility, read-out: Solubility
[18] = water, in water, read-out: solubility

Structure (SMILES): COc1cc(Nc2ncc(F)c(Nc3ccc4c(n3)NC(=O)C(C)(C)O4)n2)cc(OC)c1OC [Compound 1, N4-(2,2-dimethyl-3-oxo-4H-5-pyrido[1,4]oxazin-6-yl)-5-fluoro-N2-(3,4,5-trimethoxyphenyl)-2,4-pyrimidinediamine]
- arthritis severity, disease incidence, time of onset ([1]; lower dose levels, p>0.05): the differences were not significant
- clinical arthritis ([1]; oral, b.i.d., vs vehicle, p<0.05): significantly reduced clinical arthritis
- arthritis severity ([2]; 30 mg/kg q.d. p.o., evident within 7 days after initiation of therapy, p<0.05): significant reduction
- Mean modified Mankin scores ([2]; 30 mg/kg, vehicle 11.8±0.9, p<0.001): 3.7±0.9
- clinical score ([2]; Day 28, 30 mg/kg, vehicle 6.08±0.67, p<0.001): 2.54±0.98
- joint damage, blinded radiographs ([2]; Day 28, vehicle 3.66±0.71, p<0.02): 1.63±0.67
- Antibodies to native CII ([2]; ELISA, treated rats): not decreased
- EC50 [3]: ~0.043 µM
- solubility [4, 16]: < 1 µg/mL
- solubility ([4]; phosphate buffer, pH 7.5, aqueous buffer, phosphate buffer at pH=7.5, read-out: measured solubility): < 1 µg/mL
- solubility [4, 17]: < 1 µg/mL
- inhibition at 10 mg/kg ([5]; Rattus norvegicus, 10 mg/kg oral, rats, compared with vehicle control, read-out: inhibition of extravascular leakage of Evans blue dye (OD610) from tissue biopsies): 80%
- cutaneous RPA reaction and inflammatory edema ([5]; single oral treatment of rats one hour prior to antigen/antibody): reduced the cutaneous RPA reaction and inflammatory edema in a dose-dependent manner
- 28-day toxicity findings ([6]; monkey): reversible effect on hematology
- 28-day toxicity findings ([6]; rat): reversible effect on hematology, liver transaminase (mild effect in the rat only), spleen and thymus size (rat only) and bone marrow cellularity (rat and monkey)
- CD45RA+ cells, immunophenotyping ([6]; rat): significant increase
- Histopathology ([6]; rat): mild reductions in marrow cellularity
- humoral immunity, anti-KLH antibody assessment ([6]; rat): no evidence for untoward effects
- percentage of CD3+ cells, immunophenotyping ([6]; rat): significant decrease
- inhibition of ionomycin-induced degranulation [7]: does not inhibit
- EC50 [8]: 0.158 to 0.462 µM
- EC50 [9]: 0.039 µM
- mutagenicity and clastogenicity [10]: negative

- solubility of prodrug relative to active drug Compound 1 ([4]; aqueous buffer under physiological conditions): approximately 2000 times
- solubility [4, 16]: > 5000 µg/mL
- solubility [4, 17]: > 5000 µg/mL
- plasma profile of prodrug after IV administration ([12]; IV 1 mg/kg in PEG-400): Rapid disappearance
- levels of drug metabolite Compound 1 after oral prodrug ([12]; oral, PEG-400): high levels
- AUC/dose (Compound 1 exposure) / absorption, prodrug vs drug Compound 1 ([12]; oral, Compound 4 4 mg/kg vs Compound 1 2.5 mg/kg in PEG-400): nearly identical
- clearance of prodrug ([12]; study of FIG. 4/5): rapidly cleared
- stability [13]: stable
- conversion to drug Compound 1 ([14]; microsomal preparations obtained from Xenotech): failed to convert
Structure (SMILES): COc1cc(Nc2ncc(F)c(Nc3ccc4c(n3)N(COP(=O)(O)O)C(=O)C(C)(C)O4)n2)cc(OC)c1OC [Compound 4, N4-(2,2-dimethyl-4-[(dihydrogenphosphonoxy)methyl]-3-oxo-5-pyrido[1,4]oxazin-6-yl)-5-fluoro-N2-(3,4,5-trimethoxyphenyl)-2,4-pyrimidinediamine]
- stability in rat plasma / hydrolysis to Compound 1 [11]: metabolize to the active drug Compound 1; also recorded: unstable
- systemic presence of prodrug after oral administration ([12]; oral, PEG-400): no prodrug Compound 4 was present systemically
- dependence of absorption on formulation ([12]; rats, PEG-400 and CMC solutions, powder in hard gelatin capsules): not dependent upon formulation; also recorded: not dependent on formulation
- conversion to drug Compound 1 ([14]; intestinal and hepatic microsomes from a different source): metabolize to the active drug Compound 1; also recorded: conversion of Compound 4 to Compound 1 was observed

- solubility [4, 18]: 15 µg/mL
Structure (SMILES): COc1cc(Nc2ncc(F)c(Nc3ccc4c(n3)N(COP(=O)(O)O)C(=O)C(C)(C)O4)n2)cc(OC)c1OC [Prodrug Salt 6, N4-(2,2-dimethyl-4-[(dihydrogenphosphonoxy)methyl]-3-oxo-5-pyrido[1,4]oxazin-6-yl)-5-fluoro-N2-(3,4,5-trimethoxyphenyl)-2,4-pyrimidinediamine mono calcium salt]

- solubility [4, 18]: 10000 µg/mL
- water content ([15]; after humidity is increased): approximately 14.0%
- moisture content ([15]; dry conditions, ambient temperature, about 0% relative humidity): approximately 4.0%
Structure (SMILES): COc1cc(Nc2ncc(F)c(Nc3ccc4c(n3)N(COP(=O)([O-])[O-])C(=O)C(C)(C)O4)n2)cc(OC)c1OC.[Na+].[Na+] [prodrug salt hydrate 32, N4-(2,2-dimethyl-4-[(dihydrogenphosphonoxy)methyl]-3-oxo-5-pyrido[1,4]oxazin-6-yl)-5-fluoro-N2-(3,4,5-trimethoxyphenyl)-2,4-pyrimidinediamine disodium salt hexahydrate]
- stability of hydration over relative humidity ([15]; hexahydrate form): stable over a wide range of relative humidities
